# Assay results from patent publication US12433903B2 (priority 2021, dated 2025).
# How the values were obtained:
# [1] = PK study after oral (PO) or intraperitoneal (IP) administration; type: in vivo, male Sprague Dawley rats; details: CBG 30 mg/kg PO or IP; Compound 1 31.5 mg/kg PO; Compound 2 32.7 mg/kg PO
# Description: This study evaluated the pharmacokinetics of (E)-2-(3,7-dimethylocta-2,6-dien-1-yl)-3-methoxy-5-pentylphenol (1) and (E)-2-(3,7-dimethylocta-2,6-dien-1-yl)-1,3-dimethoxy-5-pentylbenzene (2) following oral (PO) or intraperitoneal (IP) administration to male Sprague Dawley rats.
# For the oral formulation the test article was added to the appropriate amount of Maisine and stirred until uniform. Next Labrasol was added to the formulation and allowed to stir until uniform. Finally, water will be slowly added to the stirring formulation to achieve the final volume.
# For the IP formulation the test article was added to the appropriate amount of ethanol and stirred until uniform. Next, the appropriate amount of tween-20 was added to the stirred formulation. Finally, the appropriate amount of saline was slowly added to the stirred formulation to achieve the final volume.
# Animals were fasted the evening prior to dosing with food returned at 4 h postdose, and the animals weighed on the morning of dose administration.
# IP doses were administered via injection to the intraperitoneal region. PO doses were delivered into the stomach via syringe and gavage tube.
# Blood was collected from via direct jugular stick or from the tail vein. Blood samples were kept on ice until being centrifuged at 3200 RPM for 10 minutes at ˜5° C. within 1 h of collection. Plasma was split into 2 cryovials in approximately equal volumes (0.05 mLs) and stored at −20° C.±5° C. until shipment.
# rUGT2B7 = target: T1, rUGT2B7 (Homo sapiens, UniProt P16662); assay: Inhibition of CBG glucuronidation by Compound 1, rUGT2B7; type: in vitro ADME
# T1 sequence (P16662 24-529): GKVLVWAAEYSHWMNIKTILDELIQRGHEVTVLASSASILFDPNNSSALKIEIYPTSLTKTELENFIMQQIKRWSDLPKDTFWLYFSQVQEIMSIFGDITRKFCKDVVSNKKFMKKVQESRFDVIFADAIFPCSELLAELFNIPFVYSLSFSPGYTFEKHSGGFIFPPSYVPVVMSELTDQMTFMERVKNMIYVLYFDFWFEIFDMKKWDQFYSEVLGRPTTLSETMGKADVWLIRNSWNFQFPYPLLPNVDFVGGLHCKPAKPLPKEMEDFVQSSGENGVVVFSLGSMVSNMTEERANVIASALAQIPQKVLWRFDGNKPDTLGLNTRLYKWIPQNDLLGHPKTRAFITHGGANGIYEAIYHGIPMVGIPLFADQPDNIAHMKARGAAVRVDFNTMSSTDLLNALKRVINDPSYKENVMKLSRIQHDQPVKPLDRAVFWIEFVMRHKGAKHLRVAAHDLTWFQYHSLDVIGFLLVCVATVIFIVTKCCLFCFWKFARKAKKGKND
# Description: The purpose of this experiment was to determine if Compound 1 can inhibit the glucuronidation of CBG, as both are substrates for the two major isoforms responsible for CBG glucuronidation.
# The ability of Compound 1 to inhibit the metabolism of CBG by UGT1A9 and UGT2B7 enzymes was investigated to ascertain the IC50 values for direct inhibition. The incubation conditions (substrate concentration, incubation time and protein concentration) were determined in Part 2 of the protocol such that CBG metabolism remains near initial rate conditions (e.g., 20-30% substrate loss).
# Preliminary experiments were conducted in Part I of the protocol, first to establish the HPLC/MS/MS bioanalytical methods for CBG and CBG glucuronide. […] The second set of preliminary experiments (Part 2), as mentioned, were conducted to optimize the incubation conditions as described above. Incubations (at 37° C.) contained Tris-HCl buffer (100 mM, pH 7.7), MgCl2 (10 mM), EDTA (1 mM, pH 7.4) and UDP-glucuronic acid (UDPGA, 10 mM). CBG was added to each incubation in DMSO such that the final percent of DMSO was 1% v/v, or less. Reactions were terminated by the addition of an equal volume of stop reagent, acetonitrile containing an internal standard. The samples were centrifuged (e.g., 920 RCF for 10 minutes at 10° C.), and the supernatant fractions were analyzed by LC-MS/MS to determine the amount of CBG remaining and formation of one metabolite (CBG glucuronide).
# To examine its ability to act as a direct inhibitor of the above listed enzymes, Compound 1 was be added to recombinant human UGT enzyme together with CBG. Reactions were initiated with UDPGA and were carried out in duplicate. For all assays, reactions were terminated by the addition of acetonitrile with or without 2% v/v formic acid, including the internal standard.
# Authentic metabolite reference standards were used for quantitation of the probe substrate metabolites and as internal standards. Based on the information obtained in the Part 2 experiments, the following table summarizes the experiments performed, assessing the inhibitory effects of Compound 1 was conducted as follows:
# The amounts of CBG present at the end of the incubation periods was determined. For inhibition to have occurred, the amounts of CBG present at the end of the incubation period needed to increase, and the amounts of glucuronide formed needed to decrease.
# [2] = 10 μM CBG + 0.01 μM Compound 1, 5 min
# [3] = 10 μM CBG + 0.03 μM Compound 1, 5 min
# [4] = 10 μM CBG + 0.1 μM Compound 1, 5 min
# [5] = 10 μM CBG + 0.3 μM Compound 1, 5 min
# [6] = 10 μM CBG + 1 μM Compound 1, 5 min
# [7] = 10 μM CBG + 3 μM Compound 1, 5 min
# [8] = 10 μM CBG + 10 μM Compound 1, 5 min
smiles,measurement,setting,value
"CCCCCc1cc(O)c(C/C=C(\C)CCC=C(C)C)c(O)c1 [CBG, cannabigerol]",glucuronidation / glucuronide formation in plasma (in words),[1],converted by glucuronidation to CBG-glucoronide
"CCCCCc1cc(O)c(C/C=C(\C)CCC=C(C)C)c(OC)c1 [Compound 1, (E)-2-(3,7-dimethylocta-2,6-dien-1-yl)-3-methoxy-5-pentylphenol]",CBG detected (CBG loss),rUGT2B7; [2],1370 pmol
same,"CBG detected, Percent of control",rUGT2B7; [2],103
same,CBG glucuronide formed,rUGT2B7; [2],260000 area ratio
same,"CBG glucuronide formed, Percent of control",rUGT2B7; [2],104
same,CBG detected (CBG loss),rUGT2B7; [3],1460 pmol
same,"CBG detected, Percent of control",rUGT2B7; [3],109
same,"CBG glucuronide formed, Percent of control",rUGT2B7; [3],101
same,CBG detected (CBG loss),rUGT2B7; [4],1410 pmol
same,"CBG detected, Percent of control",rUGT2B7; [4],106
same,"CBG glucuronide formed, Percent of control",rUGT2B7; [4],103
same,CBG detected (CBG loss),rUGT2B7; [5],1450 pmol
same,"CBG detected, Percent of control",rUGT2B7; [5],109
same,"CBG glucuronide formed, Percent of control",rUGT2B7; [5],105
same,CBG detected (CBG loss),rUGT2B7; [6],1460 pmol
same,"CBG detected, Percent of control",rUGT2B7; [6],109
same,"CBG glucuronide formed, Percent of control",rUGT2B7; [6],102
same,CBG detected (CBG loss),rUGT2B7; [7],1440 pmol
same,"CBG detected, Percent of control",rUGT2B7; [7],108
same,"CBG glucuronide formed, Percent of control",rUGT2B7; [7],101
same,CBG detected (CBG loss),rUGT2B7; [8],1470 pmol
same,"CBG detected, Percent of control",rUGT2B7; [8],111
same,"CBG glucuronide formed, Percent of control",rUGT2B7; [8],96.0
same,metabolism of CBG in the presence of Compound 1 (in words),"rUGT2B7; 0.01-10 μM Compound 1, CBG disappearance or glucuronide formation",essentially unchanged
same,glucuronidation / glucuronide formation in plasma (in words),[1],significantly reduced levels of glucuronidation compared to CBG
